For 12 compounds, IC50 and selectivity ratio results are on record in ChEMBL document CHEMBL5385875, “Tumor killing by a dietary curcumin mono-carbonyl analog that works as a selective ROS generator via TrxR inhibition” (Eur J Med Chem, 2023).

One series concerns A549. As to the kind of experiment: Cytotoxicity against human A549 cells assessed as reduction in cell viability incubated for 48 hrs by MTT assay. In kind it is functional, cell-based. Particulars: A549, 48 h.
For `COc1ccccc1/C=C1\CN(C)C/C(=C\c2ccccc2OC)C1=O`, the IC50 was found to be 6.81 µM.
The same measure, in the same setting: next, `COc1cccc(/C=C2\CCC/C(=C\c3cccc(OC)c3)C2=O)c1`: 11.6 µM; `COc1ccc(/C=C2\CCC/C(=C\c3ccc(OC)cc3)C2=O)cc1`: greater than 100 µM; `O=C1/C(=C/c2ccccc2)CCC/C1=C\c1ccccc1` [2,6-DIBENZYLIDENECYCLOHEXANONE]: 26.3 µM.
In the case of `O=C1/C(=C/c2ccccc2C(F)(F)F)CCC/C1=C\c1ccccc1C(F)(F)F`, the IC50 was greater than 100 µM.
For the compound `CN1C/C(=C\c2ccc(C(F)(F)F)cc2)C(=O)/C(=C/c2ccc(C(F)(F)F)cc2)C1`, the IC50 was determined as 1.58 µM.
In the case of `CN1C/C(=C\c2ccccc2C(F)(F)F)C(=O)/C(=C/c2ccccc2C(F)(F)F)C1`, the IC50 was greater than 100 µM.
In the case of `COc1ccc(/C=C2\CN(C)C/C(=C\c3ccc(OC)cc3)C2=O)cc1`, the IC50 is greater than 100 µM.
Consider `CN1C/C(=C\c2cccc(C(F)(F)F)c2)C(=O)/C(=C/c2cccc(C(F)(F)F)c2)C1`, for which the IC50 was determined as 1.08 µM.
`O=C1/C(=C/c2cccc(C(F)(F)F)c2)CCC/C1=C\c1cccc(C(F)(F)F)c1`: the IC50 is 3.96 µM.

The next series deals with NCI-H460. The series can be described thus: Cytotoxicity against human NCI-H460 cells assessed as reduction in cell viability incubated for 48 hrs by MTT assay. Format: functional, cell-based. The note with it: NCI-H460, 48 h.
With `CC[C@@]1(O)C(=O)OCc2c1cc1n(c2=O)Cc2cc3ccccc3nc2-1` [CAMPTOTHECIN], the concentration for half-maximal inhibition (IC50) is 0.79 µM.
Still for that read-out and setting: next, `COc1ccccc1/C=C1\CN(C)C/C(=C\c2ccccc2OC)C1=O`: 8.39 µM.
Still for that read-out and setting: the value for `COc1cccc(/C=C2\CCC/C(=C\c3cccc(OC)c3)C2=O)c1` was 16.4 µM.
In the case of `COc1ccc(/C=C2\CCC/C(=C\c3ccc(OC)cc3)C2=O)cc1`, the IC50 is greater than 100 µM.
Take `O=c1[nH]cc(F)c(=O)[nH]1` [FLUOROURACIL]: the IC50 is 24.8 µM.
Consider `O=C1/C(=C/c2ccccc2)CCC/C1=C\c1ccccc1` [2,6-DIBENZYLIDENECYCLOHEXANONE], for which the IC50 came out at 50.5 µM.
In the case of `O=C1/C(=C/c2ccccc2C(F)(F)F)CCC/C1=C\c1ccccc1C(F)(F)F`, the IC50 is greater than 100 µM.
Consider `CN1C/C(=C\c2ccc(C(F)(F)F)cc2)C(=O)/C(=C/c2ccc(C(F)(F)F)cc2)C1`, for which the IC50 came to 2.2 µM.
Turning to `CN1C/C(=C\c2ccccc2C(F)(F)F)C(=O)/C(=C/c2ccccc2C(F)(F)F)C1`, the IC50 was greater than 100 µM.
Same read-out and setting: next, `COc1ccc(/C=C2\CN(C)C/C(=C\c3ccc(OC)cc3)C2=O)cc1`: greater than 100 µM; `CN1C/C(=C\c2cccc(C(F)(F)F)c2)C(=O)/C(=C/c2cccc(C(F)(F)F)c2)C1`: 2.94 µM; `O=C1/C(=C/c2cccc(C(F)(F)F)c2)CCC/C1=C\c1cccc(C(F)(F)F)c1`: 6.06 µM.

System in the next series: not listed separately
As to the kind of experiment: Selectivity index, ratio of IC50 for human MRC5 cells to IC50 for human NCI-H460 cells. In kind it is toxicity. Particulars: MRC5 cells versus NCI-H460 cells, read-out: Ratio IC50.
On to `CC[C@@]1(O)C(=O)OCc2c1cc1n(c2=O)Cc2cc3ccccc3nc2-1` [CAMPTOTHECIN], for which the selectivity ratio was found to be 11.4.
Regarding `COc1ccccc1/C=C1\CN(C)C/C(=C\c2ccccc2OC)C1=O`, the selectivity ratio was 2.03.
`COc1cccc(/C=C2\CCC/C(=C\c3cccc(OC)c3)C2=O)c1`: the selectivity ratio was 2.81.
Regarding `O=c1[nH]cc(F)c(=O)[nH]1` [FLUOROURACIL], the selectivity ratio is 9.89.
With `CN1C/C(=C\c2ccc(C(F)(F)F)cc2)C(=O)/C(=C/c2ccc(C(F)(F)F)cc2)C1`, the selectivity ratio turned out to be 2.16.
Turning to `CN1C/C(=C\c2cccc(C(F)(F)F)c2)C(=O)/C(=C/c2cccc(C(F)(F)F)c2)C1`, the selectivity ratio is 3.15.
Consider `O=C1/C(=C/c2cccc(C(F)(F)F)c2)CCC/C1=C\c1cccc(C(F)(F)F)c1`, for which the selectivity ratio turned out to be 3.62.

The subject of the next series is HT-1080. The series can be described thus: Cytotoxicity against human HT-1080 cells assessed as reduction in cell viability incubated for 48 hrs by MTT assay. Format: functional, cell-based. The note with it: HT-1080, 48 h.
Turning to `COc1ccccc1/C=C1\CN(C)C/C(=C\c2ccccc2OC)C1=O`, the concentration for half-maximal inhibition (IC50) amounted to 9.62 µM.
As to `COc1cccc(/C=C2\CCC/C(=C\c3cccc(OC)c3)C2=O)c1`, the IC50 was determined as 22.2 µM.
`COc1ccc(/C=C2\CCC/C(=C\c3ccc(OC)cc3)C2=O)cc1`: the IC50 is greater than 100 µM.
For `O=C1/C(=C/c2ccccc2)CCC/C1=C\c1ccccc1` [2,6-DIBENZYLIDENECYCLOHEXANONE], the IC50 worked out at 32.6 µM.
On the same count and under the same terms, the value for `O=C1/C(=C/c2ccccc2C(F)(F)F)CCC/C1=C\c1ccccc1C(F)(F)F` was greater than 100 µM; that for `CN1C/C(=C\c2ccc(C(F)(F)F)cc2)C(=O)/C(=C/c2ccc(C(F)(F)F)cc2)C1` was 2.03 µM; that for `CN1C/C(=C\c2ccccc2C(F)(F)F)C(=O)/C(=C/c2ccccc2C(F)(F)F)C1` was 49.5 µM.
`COc1ccc(/C=C2\CN(C)C/C(=C\c3ccc(OC)cc3)C2=O)cc1`: the IC50 was greater than 100 µM.
As to `CN1C/C(=C\c2cccc(C(F)(F)F)c2)C(=O)/C(=C/c2cccc(C(F)(F)F)c2)C1`, the IC50 was found to be 3.86 µM.
Regarding `O=C1/C(=C/c2cccc(C(F)(F)F)c2)CCC/C1=C\c1cccc(C(F)(F)F)c1`, the IC50 amounted to 6.34 µM.

In the next series the test system is HepG2. As to the kind of experiment: Cytotoxicity against human HepG2 cells assessed as reduction in cell viability incubated for 48 hrs by MTT assay. Format: functional, cell-based. The note with it: HepG2, 48 h.
For `COc1ccccc1/C=C1\CN(C)C/C(=C\c2ccccc2OC)C1=O`, the IC50 was 10.7 µM.
Still for that read-out and setting: the value for `COc1cccc(/C=C2\CCC/C(=C\c3cccc(OC)c3)C2=O)c1` was 14 µM; that for `COc1ccc(/C=C2\CCC/C(=C\c3ccc(OC)cc3)C2=O)cc1` was greater than 100 µM.
The same measure, in the same setting: next, `O=C1/C(=C/c2ccccc2)CCC/C1=C\c1ccccc1` [2,6-DIBENZYLIDENECYCLOHEXANONE]: 28.5 µM; `O=C1/C(=C/c2ccccc2C(F)(F)F)CCC/C1=C\c1ccccc1C(F)(F)F`: greater than 100 µM.
In the case of `CN1C/C(=C\c2ccc(C(F)(F)F)cc2)C(=O)/C(=C/c2ccc(C(F)(F)F)cc2)C1`, the IC50 worked out at 1.01 µM.
For the compound `CN1C/C(=C\c2ccccc2C(F)(F)F)C(=O)/C(=C/c2ccccc2C(F)(F)F)C1`, the IC50 was greater than 100 µM.
In the case of `COc1ccc(/C=C2\CN(C)C/C(=C\c3ccc(OC)cc3)C2=O)cc1`, the IC50 is greater than 100 µM.
For the compound `CN1C/C(=C\c2cccc(C(F)(F)F)c2)C(=O)/C(=C/c2cccc(C(F)(F)F)c2)C1`, the IC50 was determined as 1.12 µM.
For the compound `O=C1/C(=C/c2cccc(C(F)(F)F)c2)CCC/C1=C\c1cccc(C(F)(F)F)c1`, the IC50 is 3.54 µM.

System in another series: not listed separately
The series can be described thus: Cytotoxicity against human MRC5 cells assessed as reduction in cell viability incubated for 48 hrs by MTT assay. In kind it is toxicity, cell-based.
Conditions: not given
Turning to `CC[C@@]1(O)C(=O)OCc2c1cc1n(c2=O)Cc2cc3ccccc3nc2-1` [CAMPTOTHECIN], the IC50 at 48 h was 9.02 µM.
Same read-out and setting: the value for `COc1ccccc1/C=C1\CN(C)C/C(=C\c2ccccc2OC)C1=O` was 17 µM; that for `COc1cccc(/C=C2\CCC/C(=C\c3cccc(OC)c3)C2=O)c1` was 46 µM.
As to `COc1ccc(/C=C2\CCC/C(=C\c3ccc(OC)cc3)C2=O)cc1`, the IC50 at 48 h was greater than 100 µM.
For `O=c1[nH]cc(F)c(=O)[nH]1` [FLUOROURACIL], the IC50 at 48 h was 246 µM.
Take `O=C1/C(=C/c2ccccc2)CCC/C1=C\c1ccccc1` [2,6-DIBENZYLIDENECYCLOHEXANONE]: the IC50 at 48 h is greater than 100 µM.
Consider `O=C1/C(=C/c2ccccc2C(F)(F)F)CCC/C1=C\c1ccccc1C(F)(F)F`, for which the IC50 at 48 h was greater than 100 µM.
`CN1C/C(=C\c2ccc(C(F)(F)F)cc2)C(=O)/C(=C/c2ccc(C(F)(F)F)cc2)C1`: the IC50 at 48 h worked out at 4.76 µM.
In the case of `CN1C/C(=C\c2ccccc2C(F)(F)F)C(=O)/C(=C/c2ccccc2C(F)(F)F)C1`, the IC50 at 48 h is greater than 100 µM.
In the case of `COc1ccc(/C=C2\CN(C)C/C(=C\c3ccc(OC)cc3)C2=O)cc1`, the IC50 at 48 h is greater than 100 µM.
Still for that read-out and setting: next, `CN1C/C(=C\c2cccc(C(F)(F)F)c2)C(=O)/C(=C/c2cccc(C(F)(F)F)c2)C1`: 9.25 µM.
Take `O=C1/C(=C/c2cccc(C(F)(F)F)c2)CCC/C1=C\c1cccc(C(F)(F)F)c1`: the IC50 at 48 h stood at 21.9 µM.
